From article PMC12156185, “Synthesis of Cyclic Hexapeptides via the Hydrazide Method and Evaluation of Their Antibacterial Activities” (Molecules, 2025)

Assay: Head-to-tail amide via hydrazide-based intramolecular NCL: C-terminal peptide hydrazide + NaNO2 (10 eq, pH 3, -15 °C) to acyl azide, then MPAA (40 eq) thioester, pH 6.3-6.5 (Fig 2: 6.7-7), S-to-N acyl shift onto N-terminal Cys; TCEP work-up
Conditions: the molecule shown is the open-chain precursor; 18-membered ring; 0.2 M sodium phosphate, 6 M guanidine HCl (aq); 0.75 mM; 25.0 °C

Ring closure, product found (1=cyclised, 0=failed), 1:
CC[C@H](C)[C@H](NC(=O)[C@H](CCCCN)NC(=O)[C@H](CC(C)C)NC(=O)[C@H](CCCNC(=N)N)NC(=O)[C@@H](N)CS)C(=O)N[C@@H](Cc1ccccc1)C(=O)NN [H-Cys-Arg-Leu-Lys-Ile-Phe-NHNH2], CC(C)C[C@H](NC(=O)[C@H](CCCCN)NC(=O)[C@@H](N)CS)C(=O)N[C@@H](CCCNC(=N)N)C(=O)N[C@@H](Cc1c[nH]c2ccccc12)C(=O)N[C@@H](Cc1ccccc1)C(=O)NN [H-Cys-Lys-Leu-Arg-Trp-Phe-NHNH2], CC[C@H](C)[C@H](NC(=O)[C@@H](N)CS)C(=O)N[C@@H](CCCNC(=N)N)C(=O)N1CCC[C@H]1C(=O)N[C@H](C(=O)N[C@@H](CC(C)C)C(=O)NN)[C@@H](C)CC [H-Cys-Ile-Arg-Pro-Ile-Leu-NHNH2], CC[C@H](C)[C@H](NC(=O)[C@@H](NC(=O)[C@H](CCCNC(=N)N)NC(=O)[C@@H](N)CS)C(C)C)C(=O)N[C@H](C(=O)N[C@@H](CCCNC(=N)N)C(=O)NN)[C@@H](C)CC [H-Cys-Arg-Val-Ile-Ile-Arg-NHNH2], CC[C@H](C)[C@H](NC(=O)[C@@H](NC(=O)[C@@H]1CCCN1C(=O)[C@H](CCCCN)NC(=O)[C@H](CCCNC(=N)N)NC(=O)[C@@H](N)CS)[C@@H](C)CC)C(=O)NN [H-Cys-Arg-Lys-Pro-Ile-Ile-NHNH2], CC[C@H](C)[C@H](NC(=O)[C@@H]1CCCN1C(=O)[C@H](CCCCN)NC(=O)[C@H](CCCNC(=N)N)NC(=O)[C@@H](N)CS)C(=O)N[C@H](C(=O)NN)C(C)C [H-Cys-Arg-Lys-Pro-Ile-Val-NHNH2], CC[C@H](C)[C@H](NC(=O)[C@H](CCCCN)NC(=O)[C@H](CC(C)C)NC(=O)[C@H](CC(C)C)NC(=O)[C@@H](N)CS)C(=O)N[C@@H](Cc1ccccc1)C(=O)NN [H-Cys-Leu-Leu-Lys-Ile-Phe-NHNH2], CC[C@H](C)[C@H](NC(=O)[C@H](CCCCN)NC(=O)[C@H](CC(C)C)NC(=O)[C@H](CCCCN)NC(=O)[C@@H](N)CS)C(=O)N[C@@H](Cc1ccccc1)C(=O)NN [H-Cys-Lys-Leu-Lys-Ile-Phe-NHNH2], CC(C)C[C@H](NC(=O)[C@@H](NC(=O)[C@@H]1CCCN1C(=O)[C@H](CCCCN)NC(=O)[C@H](CCCNC(=N)N)NC(=O)[C@@H](N)CS)C(C)C)C(=O)NN [H-Cys-Arg-Lys-Pro-Val-Leu-NHNH2], CC[C@H](C)[C@H](NC(=O)[C@H](CCCNC(=N)N)NC(=O)[C@@H](N)CS)C(=O)N[C@H](C(=O)N[C@H](C(=O)N[C@@H](CCCNC(=N)N)C(=O)NN)C(C)C)C(C)C [H-Cys-Arg-Ile-Val-Val-Arg-NHNH2], CC[C@H](C)[C@H](NC(=O)[C@@H](NC(=O)[C@@H]1CCCN1C(=O)[C@H](CCCNC(=N)N)NC(=O)[C@@H](NC(=O)[C@@H](N)CS)[C@@H](C)CC)[C@@H](C)CC)C(=O)NN [H-Cys-Ile-Arg-Pro-Ile-Ile-NHNH2]
